Data taken from the supplement of paper PMC10307832.

Columns and labels:
Experiment in all cases: relative viability (nuclei count vs DMSO), 5 days (fraction); higher = more cells survive
NCI-H1915 = test system: NCI-H1915
Summary of the method: (§1)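 Lung cancer cell lines were seeded in 1536-well plates and dosed by pin tool the next day, with either a single drug or a fixed anchor-drug dose combined with five library-drug doses (not always all listed) spaced in √10 steps. Five days later, one step fixed the cells and stained their nuclei (final 0.05% Triton X-100, 1% formaldehyde, 1 ug/ml Hoechst), and nuclei were counted on 4× images. Relative viability is the nuclei count in treated wells divided by the count in vehicle wells, and each value is the median of duplicate plates.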

NCI-H2023 = test system: NCI-H2023
Summary of the method: as §1

NCI-H2347 = test system: NCI-H2347
Summary of the method: as §1

NCI-H2009 = test system: NCI-H2009
Summary of the method: as §1

LXF-289 = test system: LXF-289
Summary of the method: as §1

EMC-BAC-2 = test system: EMC-BAC-2
Summary of the method: as §1

LCLC-97TM1 = test system: LCLC-97TM1
Summary of the method: as §1

EPLC-272H = test system: EPLC-272H
Summary of the method: as §1

HOP-62 = test system: HOP-62
Summary of the method: as §1

PC-14 = test system: PC-14
Summary of the method: as §1

SW 1573 = test system: SW 1573
Summary of the method: as §1

NCI-H1563 = test system: NCI-H1563
Summary of the method: as §1

NCI-H1993 = test system: NCI-H1993
Summary of the method: as §1

NCI-H2126 = test system: NCI-H2126
Summary of the method: as §1

NCI-H2342 = test system: NCI-H2342
Summary of the method: as §1

SK-LU-1 = test system: SK-LU-1
Summary of the method: as §1

NCI-H1650 = test system: NCI-H1650
Summary of the method: as §1

NCI-H727 = test system: NCI-H727
Summary of the method: as §1

NCI-H322M = test system: NCI-H322M
Summary of the method: as §1

NCI-H661 = test system: NCI-H661
Summary of the method: as §1

NCI-H647 = test system: NCI-H647
Summary of the method: as §1

H3255 = test system: H3255
Summary of the method: as §1

NCI-H2085 = test system: NCI-H2085
Summary of the method: as §1

`NC(=O)Nc1cc(-c2cccc(F)c2)sc1C(=O)N[C@H]1CCCNC1` [AZD7762] + N=C(N)NC(=N)NCCc1ccccc1 [Phenformin] (partner 250 µM) gave a relative viability (NCI-H1915; first compound 0.01 µM) of 0.373, a relative viability (NCI-H1915; first compound 0.03162 µM) of 0.375 and a relative viability (NCI-H1915; first compound 0.1 µM) of 0.368. For the same molecule, the relative viability (NCI-H1915; first compound 0.3162 µM) was 0.362, the relative viability (NCI-H1915; first compound 1 µM) was 0.349 and the relative viability (NCI-H2023; first compound 0.01 µM) was 0.446. The relative viability (NCI-H2023; first compound 0.03162 µM) was 0.394, the relative viability (NCI-H2023; first compound 0.1 µM) was 0.255 and the relative viability (NCI-H2023; first compound 0.3162 µM) was 0.171. It also gave a relative viability (NCI-H2023; first compound 1 µM) of 0.1, a relative viability (NCI-H2347; first compound 0.01 µM) of 0.426 and a relative viability (NCI-H2347; first compound 0.03162 µM) of 0.365. The relative viability (NCI-H2347; first compound 0.1 µM) was 0.51, the relative viability (NCI-H2347; first compound 0.3162 µM) was 0.483 and the relative viability (NCI-H2347; first compound 1 µM) was 0.371. The relative viability (NCI-H2009; first compound 0.01 µM) was 0.496, the relative viability (NCI-H2009; first compound 0.03162 µM) was 0.535 and the relative viability (NCI-H2009; first compound 0.1 µM) was 0.535. The relative viability (NCI-H2009; first compound 0.3162 µM) was 0.543, the relative viability (NCI-H2009; first compound 1 µM) was 0.439 and the relative viability (LXF-289; first compound 0.01 µM) was 0.49. The relative viability (LXF-289; first compound 0.03162 µM) was 0.54, the relative viability (LXF-289; first compound 0.1 µM) was 0.508 and the relative viability (LXF-289; first compound 0.3162 µM) was 0.445. For the same molecule, the relative viability (LXF-289; first compound 1 µM) was 0.526, the relative viability (EMC-BAC-2; first compound 0.01 µM) was 0.52 and the relative viability (EMC-BAC-2; first compound 0.03162 µM) was 0.581. It also gave a relative viability (EMC-BAC-2; first compound 0.1 µM) of 0.542, a relative viability (EMC-BAC-2; first compound 0.3162 µM) of 0.448 and a relative viability (EMC-BAC-2; first compound 1 µM) of 0.474. It also gave a relative viability (LCLC-97TM1; first compound 0.01 µM) of 0.429, a relative viability (LCLC-97TM1; first compound 0.03162 µM) of 0.434 and a relative viability (LCLC-97TM1; first compound 0.1 µM) of 0.479. It also gave a relative viability (LCLC-97TM1; first compound 0.3162 µM) of 0.406, a relative viability (LCLC-97TM1; first compound 1 µM) of 0.433 and a relative viability (EPLC-272H; first compound 0.01 µM) of 0.325. For the same molecule, the relative viability (EPLC-272H; first compound 0.03162 µM) was 0.359, the relative viability (EPLC-272H; first compound 0.1 µM) was 0.278 and the relative viability (EPLC-272H; first compound 0.3162 µM) was 0.261. The relative viability (EPLC-272H; first compound 1 µM) was 0.164, the relative viability (HOP-62; first compound 0.01 µM) was 0.748 and the relative viability (HOP-62; first compound 0.03162 µM) was 0.665. It also gave a relative viability (HOP-62; first compound 0.1 µM) of 0.791, a relative viability (HOP-62; first compound 0.3162 µM) of 0.616 and a relative viability (HOP-62; first compound 1 µM) of 0.583. For the same molecule, the relative viability (PC-14; first compound 0.01 µM) was 0.652, the relative viability (PC-14; first compound 0.03162 µM) was 0.611 and the relative viability (PC-14; first compound 0.1 µM) was 0.459. It also gave a relative viability (PC-14; first compound 0.3162 µM) of 0.305, a relative viability (PC-14; first compound 1 µM) of 0.213 and a relative viability (SW 1573; first compound 0.01 µM) of 0.374. For the same molecule, the relative viability (SW 1573; first compound 0.03162 µM) was 0.384, the relative viability (SW 1573; first compound 0.1 µM) was 0.346 and the relative viability (SW 1573; first compound 0.3162 µM) was 0.297. The relative viability (SW 1573; first compound 1 µM) was 0.164, the relative viability (NCI-H1563; first compound 0.01 µM) was 0.645 and the relative viability (NCI-H1563; first compound 0.03162 µM) was 0.691. For the same molecule, the relative viability (NCI-H1563; first compound 0.1 µM) was 0.687, the relative viability (NCI-H1563; first compound 0.3162 µM) was 0.612 and the relative viability (NCI-H1563; first compound 1 µM) was 0.694. The relative viability (NCI-H1993; first compound 0.01 µM) was 0.553, the relative viability (NCI-H1993; first compound 0.03162 µM) was 0.504 and the relative viability (NCI-H1993; first compound 0.1 µM) was 0.53. For the same molecule, the relative viability (NCI-H1993; first compound 0.3162 µM) was 0.428, the relative viability (NCI-H1993; first compound 1 µM) was 0.502 and the relative viability (NCI-H2126; first compound 0.01 µM) was 0.513. It also gave a relative viability (NCI-H2126; first compound 0.03162 µM) of 0.593, a relative viability (NCI-H2126; first compound 0.1 µM) of 0.545 and a relative viability (NCI-H2126; first compound 0.3162 µM) of 0.536. It also gave a relative viability (NCI-H2126; first compound 1 µM) of 0.462, a relative viability (NCI-H2342; first compound 0.01 µM) of 0.597 and a relative viability (NCI-H2342; first compound 0.03162 µM) of 0.605. For the same molecule, the relative viability (NCI-H2342; first compound 0.1 µM) was 0.72, the relative viability (NCI-H2342; first compound 0.3162 µM) was 0.567 and the relative viability (NCI-H2342; first compound 1 µM) was 0.56. It also gave a relative viability (SK-LU-1; first compound 0.01 µM) of 0.563, a relative viability (SK-LU-1; first compound 0.03162 µM) of 0.494 and a relative viability (SK-LU-1; first compound 0.1 µM) of 0.17. For the same molecule, the relative viability (SK-LU-1; first compound 0.3162 µM) was 0.139, the relative viability (SK-LU-1; first compound 1 µM) was 0.131 and the relative viability (NCI-H1650; first compound 0.01 µM) was 0.51. For the same molecule, the relative viability (NCI-H1650; first compound 0.03162 µM) was 0.48, the relative viability (NCI-H1650; first compound 0.1 µM) was 0.439 and the relative viability (NCI-H1650; first compound 0.3162 µM) was 0.252. For the same molecule, the relative viability (NCI-H1650; first compound 1 µM) was 0.18, the relative viability (NCI-H727; first compound 0.01 µM) was 0.465 and the relative viability (NCI-H727; first compound 0.03162 µM) was 0.548. For the same molecule, the relative viability (NCI-H727; first compound 0.1 µM) was 0.439, the relative viability (NCI-H727; first compound 0.3162 µM) was 0.398 and the relative viability (NCI-H727; first compound 1 µM) was 0.262. It also gave a relative viability (NCI-H322M; first compound 0.01 µM) of 0.704, a relative viability (NCI-H322M; first compound 0.03162 µM) of 0.85 and a relative viability (NCI-H322M; first compound 0.1 µM) of 0.747. For the same molecule, the relative viability (NCI-H322M; first compound 0.3162 µM) was 0.36, the relative viability (NCI-H322M; first compound 1 µM) was 0.284 and the relative viability (NCI-H661; first compound 0.01 µM) was 0.272. The relative viability (NCI-H661; first compound 0.03162 µM) was 0.269, the relative viability (NCI-H661; first compound 0.1 µM) was 0.232 and the relative viability (NCI-H661; first compound 0.3162 µM) was 0.265. The relative viability (NCI-H661; first compound 1 µM) was 0.262, the relative viability (NCI-H647; first compound 0.01 µM) was 0.495 and the relative viability (NCI-H647; first compound 0.03162 µM) was 0.445. For the same molecule, the relative viability (NCI-H647; first compound 0.1 µM) was 0.494, the relative viability (NCI-H647; first compound 0.3162 µM) was 0.315 and the relative viability (NCI-H647; first compound 1 µM) was 0.106. For the same molecule, the relative viability (H3255; first compound 0.01 µM) was 0.337, the relative viability (H3255; first compound 0.03162 µM) was 0.357 and the relative viability (H3255; first compound 0.1 µM) was 0.402. It also gave a relative viability (H3255; first compound 0.3162 µM) of 0.378, a relative viability (H3255; first compound 1 µM) of 0.374 and a relative viability (NCI-H2085; first compound 0.01 µM) of 0.647. For the same molecule, the relative viability (NCI-H2085; first compound 0.03162 µM) was 0.806, the relative viability (NCI-H2085; first compound 0.1 µM) was 0.811 and the relative viability (NCI-H2085; first compound 0.3162 µM) was 0.685. For the same molecule, the relative viability (NCI-H2085; first compound 1 µM) was 0.496.
